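How tested: cells in 96-well plates exposed to compound for 48 hours at five concentrations. The concentration for full growth arrest is given as TGI.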
Legend:
Assay in all cases: NCI-60 cell line screen, 48 h
T-47D breast = tested on: T-47D breast
OVCAR-4 ovarian = tested on: OVCAR-4 ovarian
OVCAR-5 ovarian = tested on: OVCAR-5 ovarian
MALME-3M melanoma = tested on: MALME-3M melanoma
MDA-MB-231 breast = tested on: MDA-MB-231 breast
OVCAR-8 ovarian = tested on: OVCAR-8 ovarian
A549 NSCLC = tested on: A549 NSCLC
UACC-62 melanoma = tested on: UACC-62 melanoma
COLO 205 colon = tested on: COLO 205 colon
UO-31 renal = tested on: UO-31 renal
NCI-H23 lung = tested on: NCI-H23 lung
HL-60(TB) leukemia = tested on: HL-60(TB) leukemia
MDA-MB-435 = tested on: MDA-MB-435
UACC-257 melanoma = tested on: UACC-257 melanoma
TK-10 renal = tested on: TK-10 renal
CAKI-1 renal = tested on: CAKI-1 renal
HS 578T breast = tested on: HS 578T breast
SF-268 CNS = tested on: SF-268 CNS
IGROV1 ovarian = tested on: IGROV1 ovarian
SK-MEL-2 melanoma = tested on: SK-MEL-2 melanoma

Compound	TGI (T-47D breast)	TGI (OVCAR-4 ovarian)	TGI (OVCAR-5 ovarian)	TGI (MALME-3M melanoma)	TGI (MDA-MB-231 breast)	TGI (OVCAR-8 ovarian)	TGI (A549 NSCLC)	TGI (UACC-62 melanoma)	TGI (COLO 205 colon)	TGI (UO-31 renal)	TGI (NCI-H23 lung)	TGI (HL-60(TB) leukemia)	TGI (MDA-MB-435)	TGI (UACC-257 melanoma)	TGI (TK-10 renal)	TGI (CAKI-1 renal)	TGI (HS 578T breast)	TGI (SF-268 CNS)	TGI (IGROV1 ovarian)	TGI (SK-MEL-2 melanoma)
CCOC(=O)c1sc2nc(SC)nc3c2c1NCN3c1ccc(F)c(F)c1	> 100 µM	17.7 µM	> 100 µM	> 49.1 µM	46.2 µM	29.4 µM	25.3 µM	> 100 µM	> 100 µM	> 63.3 µM	75.3 µM	> 100 µM	41.7 µM	> 100 µM	64.1 µM	> 100 µM	30.8 µM	> 100 µM	> 100 µM	> 100 µM
Fc1ccc(N=C/C=C/Nc2ccc(F)cc2)cc1	29.4 µM	29.8 µM	25.3 µM	30.6 µM	30.1 µM	25.9 µM	21.8 µM	16.8 µM	12.5 µM	21 µM	48.4 µM	10.3 µM	20.8 µM	26.8 µM	4.32 µM	28.2 µM	47.2 µM	27.5 µM	26.2 µM	26.7 µM
COC(=O)[C@H]1NC(=O)CCSSC1(C)C	> 100 µM	> 100 µM	> 100 µM	> 100 µM	> 100 µM	> 100 µM	> 100 µM	> 100 µM	> 100 µM	> 100 µM	> 100 µM	> 100 µM	> 100 µM	> 100 µM	> 100 µM	> 100 µM	> 100 µM	> 100 µM	> 100 µM	> 100 µM
CC12CC3OC(=O)C1COC14OC5(C2C1=O)C(O)(CCC1C4CC2OC24CC=CC(=O)C14C)C(=O)OC35C (stereo not given)	37.3 µM	> 100 µM	34.9 µM	52.8 µM	37 µM	> 100 µM	> 100 µM	27.6 µM	22.1 µM	31.1 µM	33.1 µM	28.7 µM	32.9 µM	39.4 µM	30.8 µM	25.8 µM	> 100 µM	> 100 µM	42.8 µM	28.1 µM
CSC1C(=O)Nc2ccc3ccccc3c21 (stereo not given)	29.4 µM	39.9 µM	> 100 µM	> 100 µM	56.5 µM	34.9 µM	> 100 µM	35.9 µM	43.3 µM	33.2 µM	> 100 µM	10.8 µM	> 100 µM	44.8 µM	33.2 µM	38.9 µM	46 µM	38 µM	33.3 µM	> 100 µM
O=c1sc2c(s1)-c1sc(=O)sc1SS2	> 100 µM	> 100 µM	> 75.3 µM	> 100 µM	> 100 µM	48.9 µM	> 100 µM	> 100 µM	> 65 µM	> 100 µM	> 60.5 µM	> 100 µM	> 100 µM	> 100 µM	> 79.4 µM	> 100 µM	> 100 µM	> 100 µM	> 100 µM	> 100 µM
CSc1c(C#N)c(N)nc2c(N=Nc3ccc(Br)cc3)c(N)nn12	4.74 µM	15.1 µM	33.3 µM	24 µM	15.9 µM	23.4 µM	25.1 µM	19.4 µM	25.1 µM	28.6 µM	14.4 µM	9.1 µM	25 µM	21.4 µM	29.7 µM	26 µM	5.81 µM	13.2 µM	8.82 µM	17.2 µM

— PubChem BioAssay (NCI)
